In patent US9944654B2, “Nargenicin compounds and uses thereof as antibacterial agents” (priority 2014, dated 2018):
≈ marks a conversion by molar mass, not a printed value. Like-named read-outs stand apart in the source and are kept apart here.

Legend:
[1] = biological target: T1, E. coli DnaE (DNA polymerase III α-subunit from Escherichia coli) (Escherichia coli, UniProt P10443); assay: In vitro DnaE single enzyme assay (E. coli); format: biochemical
T1 construct: EcDnaE (E. coli DnaE residues 1-1160); 6xHis (N); made in house; host or cells: E. coli BL21(DE3)
T1 sequence (P10443 whole entry, the tested form may be a part): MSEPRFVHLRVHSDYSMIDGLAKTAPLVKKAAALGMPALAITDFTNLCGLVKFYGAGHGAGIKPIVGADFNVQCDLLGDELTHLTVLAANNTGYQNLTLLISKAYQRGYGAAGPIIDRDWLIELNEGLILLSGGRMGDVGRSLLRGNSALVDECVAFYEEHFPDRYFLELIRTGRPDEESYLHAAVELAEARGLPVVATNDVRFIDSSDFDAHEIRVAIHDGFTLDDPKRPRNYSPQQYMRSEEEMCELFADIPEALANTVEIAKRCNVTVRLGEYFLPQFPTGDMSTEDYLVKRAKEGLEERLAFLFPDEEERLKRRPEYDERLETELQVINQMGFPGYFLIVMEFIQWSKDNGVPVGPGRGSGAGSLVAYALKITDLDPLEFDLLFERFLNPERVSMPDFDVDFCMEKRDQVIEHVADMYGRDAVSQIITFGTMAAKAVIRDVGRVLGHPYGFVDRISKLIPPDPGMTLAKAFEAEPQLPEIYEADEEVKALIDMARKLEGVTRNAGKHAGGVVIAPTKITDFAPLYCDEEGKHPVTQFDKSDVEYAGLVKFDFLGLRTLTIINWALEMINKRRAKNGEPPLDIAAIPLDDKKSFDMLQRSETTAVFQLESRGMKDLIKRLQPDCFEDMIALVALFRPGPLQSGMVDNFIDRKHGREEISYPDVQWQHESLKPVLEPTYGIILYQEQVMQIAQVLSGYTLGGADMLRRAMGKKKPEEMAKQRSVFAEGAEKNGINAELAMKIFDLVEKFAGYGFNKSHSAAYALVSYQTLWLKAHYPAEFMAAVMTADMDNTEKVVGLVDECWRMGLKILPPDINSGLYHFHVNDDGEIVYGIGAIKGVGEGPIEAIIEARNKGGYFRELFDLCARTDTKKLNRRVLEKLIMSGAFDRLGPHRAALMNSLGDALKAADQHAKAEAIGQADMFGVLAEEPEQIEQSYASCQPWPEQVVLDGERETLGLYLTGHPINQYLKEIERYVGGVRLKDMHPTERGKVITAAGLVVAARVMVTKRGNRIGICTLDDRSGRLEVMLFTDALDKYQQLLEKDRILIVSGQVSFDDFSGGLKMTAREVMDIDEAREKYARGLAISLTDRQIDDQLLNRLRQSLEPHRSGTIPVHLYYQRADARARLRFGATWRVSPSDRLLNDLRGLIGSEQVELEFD
How it was run: (§1)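 3H-dTTP (0.011 mM) incorporation into DNase I-activated calf thymus DNA, alongside the other three dNTPs at 0.025 mM, measured by filter counting after TCA precipitation. Reactions ran 30 min at 30° C., started with purified N-His DnaE: 0.8 μg/ml for E. coli, 0.05 μg/ml for S. aureus.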

[2] = biological target: T2, S. aureus DnaE (DNA polymerase III α-subunit homolog from Staphylococcus aureus) (Staphylococcus aureus, UniProt Q5HF71); assay: biochemical; format: biochemical
T2 construct: SaDnaE (S. aureus DnaE residues 1-1065); 6xHis (N); made in house; host or cells: E. coli BL21-AI
T2 sequence (Q5HF71 1-1065): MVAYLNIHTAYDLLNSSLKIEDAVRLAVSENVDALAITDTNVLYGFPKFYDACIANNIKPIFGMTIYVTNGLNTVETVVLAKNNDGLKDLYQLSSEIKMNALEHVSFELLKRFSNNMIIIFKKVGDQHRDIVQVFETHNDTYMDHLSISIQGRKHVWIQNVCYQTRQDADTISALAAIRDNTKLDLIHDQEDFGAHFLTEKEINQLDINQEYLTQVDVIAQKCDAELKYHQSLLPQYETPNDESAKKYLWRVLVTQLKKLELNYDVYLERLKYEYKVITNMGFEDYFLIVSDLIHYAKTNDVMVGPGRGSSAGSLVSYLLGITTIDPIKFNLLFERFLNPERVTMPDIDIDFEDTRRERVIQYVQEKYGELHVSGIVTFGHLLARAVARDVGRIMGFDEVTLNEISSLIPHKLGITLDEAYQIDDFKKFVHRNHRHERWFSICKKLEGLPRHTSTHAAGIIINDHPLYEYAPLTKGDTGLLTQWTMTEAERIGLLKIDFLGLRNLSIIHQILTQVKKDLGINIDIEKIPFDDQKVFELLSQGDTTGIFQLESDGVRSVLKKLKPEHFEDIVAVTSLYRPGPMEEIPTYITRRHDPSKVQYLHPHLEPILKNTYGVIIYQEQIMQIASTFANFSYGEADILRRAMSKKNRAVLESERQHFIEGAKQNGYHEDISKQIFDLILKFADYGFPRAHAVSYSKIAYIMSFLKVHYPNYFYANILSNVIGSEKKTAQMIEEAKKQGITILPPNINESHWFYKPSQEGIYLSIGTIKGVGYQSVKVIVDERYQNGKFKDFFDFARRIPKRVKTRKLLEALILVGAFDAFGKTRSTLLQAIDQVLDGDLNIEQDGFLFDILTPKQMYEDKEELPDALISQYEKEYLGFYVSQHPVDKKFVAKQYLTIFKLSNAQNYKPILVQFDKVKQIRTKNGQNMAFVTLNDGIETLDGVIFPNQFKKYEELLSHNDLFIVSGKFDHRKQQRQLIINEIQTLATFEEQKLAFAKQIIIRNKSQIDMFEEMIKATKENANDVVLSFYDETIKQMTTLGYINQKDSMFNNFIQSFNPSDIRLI
How it was run: as §1

[3] = tested on: Escherichia coli MB5747 (LS 883, tolC); assay: microbe, parasite or virus in culture; format: cell-based; settings: * = some reduction of growth versus control at […]; for MIC: Escherichia coli, read-out: E. coli LS883 tolC (MIC), MHII broth; for E. coli LS883 tolC (MIC): MHII broth
[4] = tested on: Pseudomonas aeruginosa MB5890 (CB1101, efflux-deleted); assay: microbe, parasite or virus in culture; format: cell-based; settings: * = some reduction of growth versus control at […]; for MIC: Pseudomonas aeruginosa, read-out: P. aeruginosa MB5890 efflux-del (MIC), MHII broth; for P. aeruginosa MB5890 efflux-del (MIC): MHII broth
[5] = tested on: Staphylococcus aureus MB6266 (MRSA COL); assay: Nargenicin antibacterial assay (MIC), S. aureus; format: cell-based; settings: * = some reduction of growth versus control at […]; for MIC: Staphylococcus aureus, MRSA, read-out: S. aureus COL (MIC), MHII broth + 50% human serum; for S. aureus COL (MIC): MHII broth + 50% human serum
[6] = tested on: Streptococcus pneumoniae MB6357 (CL 2883); assay: Nargenicin antibacterial assay (MIC), S. pneumoniae; format: cell-based; settings: * = some reduction of growth versus control at […]; for MIC: Streptococcus pneumoniae, read-out: S. pneumoniae MB2883 (MIC), Isosensitest broth; for S. pneumoniae MB2883 (MIC): Isosensitest broth
[7] = read-out: E. coli DnaE IC50 (converted)

SMILES | IC50 [1, 7] [µM] | IC50 ([2]; S. aureus DnaE IC50) [nM] | MIC [3] [µg/mL] | MIC [4] [µg/mL] | MIC [5] [µg/mL] | MIC [6] [µg/mL] | IC50 ([1]; E. coli DnaE IC50) [µM] | IC50 ([2]; read-out: S. aureus DnaE IC50 (converted)) [nM] | E. coli DnaE IC50 [1] [µg/mL] | S. aureus DnaE IC50 [2] [ng/mL] | E. coli LS883 tolC (MIC) [3] [µg/mL] | P. aeruginosa MB5890 efflux-del (MIC) [4] [µg/mL] | S. aureus COL (MIC) [5] [µg/mL] | S. pneumoniae MB2883 (MIC) [6]
C=CC[C@@H]1OC(=O)[C@@H](OC)C[C@H]2C=C[C@H]3[C@H]4O[C@]2(/C(C)=C/[C@H]1C)[C@@H]3[C@H](O)[C@@H](C)[C@H]4OC(=O)c1ccc[nH]1 [Example 54] | 60.6 | 88 | 64 (≈ 125 µM) | > 128 | 64 | > 128 |  |  |  |  |  |  |  | 
C=CC[C@H]1OC(=O)[C@@H](OC)C[C@H]2C=C[C@H]3[C@H]4O[C@]2(/C(C)=C/[C@H]1C)[C@@H]3[C@H](O)[C@@H](C)[C@H]4OC(=O)c1ccc[nH]1 [Example 55] | 11.7 | < 11.7 | 2 (≈ 3.91 µM) | 32 (≈ 62.5 µM) | 2 | > 64 |  |  |  |  |  |  |  | 
CO[C@H]1CC2C=C[C@H]3[C@H]4O[C@]2(/C(C)=C/[C@@H](C)[C@@H](C(C)OC(C)=O)OC1=O)[C@@H]3[C@H](O)[C@@H](C)[C@H]4OC(=O)c1ccc[nH]1 (stereo partly drawn) [Example 57] | 80.7 | < 10.8 | 4 (≈ 7.17 µM) | > 128 | 8 | 64 (≈ 115 µM) |  |  |  |  |  |  |  | 
CO[C@H]1C[C@H]2C=C[C@H]3[C@H]4O[C@]2(/C(C)=C/[C@@H](C)[C@@H]([C@@H](C)OC(=O)CCl)OC1=O)[C@@H]3[C@H](O)[C@@H](C)[C@H]4OC(=O)c1ccc[nH]1 [Example 59] | 16.9 | < 10.1 | 0.25 (≈ 0.422 µM) | 16 (≈ 27 µM) | 0.25 | 64 (≈ 108 µM) |  |  |  |  |  |  |  | 
CO[C@H]1C[C@H]2C=CC3C4[C@H](O)[C@@H](C)[C@@H](OC(=O)c5ccc[nH]5)[C@@H]3O[C@]42/C(C)=C/[C@@H](C)[C@@H]([C@@H](C)OC(=O)n2nnnc2N)OC1=O [Example 64] | 46.3 | < 9.57 | 4 (≈ 6.38 µM) | 128 (≈ 204 µM) | 4 | > 128 |  |  |  |  |  |  |  | 
CO[C@H]1C[C@H]2C=CC3C4[C@H](O)[C@@H](C)[C@@H](OC(=O)c5ccc[nH]5)[C@@H]3O[C@]42/C(C)=C/[C@@H](C)[C@@H]([C@@H](C)OC(=O)Nc2nnn[nH]2)OC1=O [Example 65] | 16 | < 9.57 | 2 (≈ 3.19 µM) | 64 (≈ 102 µM) | 2 | > 128 |  |  |  |  |  |  |  | 
CO[C@H]1C[C@H]2C=C[C@H]3[C@H]4O[C@]2(/C(C)=C/[C@@H](C)[C@@H]([C@@H](C)OC(=O)c2ccccc2)OC1=O)[C@@H]3[C@H](O)[C@@H](C)[C@H]4OC(=O)c1ccc[nH]1 [Example 67] |  |  | > 128 | > 128 | > 128 | > 128 | 12.9 | 11.3 |  |  |  |  |  | 
CO[C@H]1C[C@H]2C=CC3C4[C@H](O)[C@@H](C)[C@@H](OC(=O)c5ccc[nH]5)[C@@H]3O[C@]42/C(C)=C/[C@@H](C)[C@@H]([C@@H](C)OC(=O)C(=O)OCc2ccncc2)OC1=O.O=C(O)C(F)(F)F [Example 69] | 6.31 | < 7.57 | 1 | 32 | 2 | > 128 |  |  |  |  |  |  |  | 
CO[C@H]1CC2C=C[C@H]3[C@H]4O[C@]2(/C(C)=C/[C@@H](C)[C@@H]([C@@H](C)OC(=O)C[n+]2ccc(C(N)=O)cc2)OC1=O)[C@@H]3[C@H](O)[C@@H](C)[C@H]4OC(=O)c1ccc[nH]1 (stereo partly drawn) [Example 70] | 13.3 | < 8.84 | 0.5 | 16 | 0.5 | > 128 |  |  |  |  |  |  |  | 
CO[C@H]1CC2C=C[C@H]3[C@H]4O[C@]2(/C(C)=C/[C@@H](C)[C@@H]([C@@H](C)OC(=O)C[n+]2ccccc2)OC1=O)[C@@H]3[C@H](O)[C@@H](C)[C@H]4OC(=O)c1ccc[nH]1 (stereo partly drawn) [Example 71] | 18.9 | < 9.44 | 0.25 | 8 | 0.25 | > 128 |  |  |  |  |  |  |  | 
CO[C@H]1C[C@H]2C=C[C@H]3[C@H]4O[C@]2(/C(C)=C/[C@@H](C)[C@@H]([C@@H](C)OC(=O)C[N+]25CC[N+](CC(N)=O)(CC2)CC5)OC1=O)[C@@H]3[C@H](O)[C@@H](C)[C@H]4OC(=O)c1ccc[nH]1.O=S(=O)([O-])C(F)(F)F.[Br-] [Example 74] | 20.9 | < 6.28 | 0.5 | 32 | 0.5 | > 128 |  |  |  |  |  |  |  | 
CO[C@H]1C[C@H]2C=CC3C4[C@H](O)[C@@H](C)[C@@H](OC(=O)c5ccc[nH]5)[C@@H]3O[C@]42/C(C)=C/[C@@H](C)[C@@H]([C@@H](C)OC(=O)C(=O)NCc2ccccc2)OC1=O [Example 114, (3R,4S,7S,8aS,11R,12R,13R,14R,14bS,E)-4-((R)-1-(2-(benzylamino)-2-oxoacetoxy)ethyl)-14-hydroxy-7-methoxy-1,3,13-trimethyl-6-oxo-3,4,6,7,8,8a,10a,11,12,13,14,14a-dodecahydro-11,14b-epoxynaphtho[2,1-e]oxecin-12-yl 1H-pyrrole-2-carboxylate] |  | < 8.87 | 0.25 (≈ 0.369 µM) | 8 (≈ 11.8 µM) | < 0.125 | > 128 | 16.3 |  |  |  |  |  |  | 
CO[C@H]1C[C@H]2C=CC3C4[C@H](O)[C@@H](C)[C@@H](OC(=O)c5ccc[nH]5)[C@@H]3O[C@]42/C(C)=C/[C@@H](C)[C@@H]([C@@H](C)OC(=O)C(=O)NCc2ccncc2)OC1=O [Example 115] |  |  |  |  |  |  |  |  | 9 | <6 | 0.5 | 8 | 0.5 | >64 µg/mL
CO[C@H]1C[C@H]2C=CC3C4[C@H](O)[C@@H](C)[C@@H](OC(=O)c5ccc[nH]5)[C@@H]3O[C@]42/C(C)=C/[C@@H](C)[C@@H]([C@@H](C)OC(=O)C(=O)NC(C)(C)C)OC1=O [Example 116] |  |  |  |  |  |  |  |  | 15 | 6 | 0.25 | 8 | ≤0.125 | >128* μg/mL
CO[C@H]1C[C@H]2C=CC3C4[C@H](O)[C@@H](C)[C@@H](OC(=O)c5ccc[nH]5)[C@@H]3O[C@]42/C(C)=C/[C@@H](C)[C@@H]([C@@H](C)OC(=O)C(=O)NC2CC2)OC1=O [Example 117] |  |  |  |  |  |  |  |  | 11 | 0.7 | ≤0.125 | 4 | ≤0.125 | 128 µg/mL
COCCNC(=O)C(=O)O[C@H](C)[C@H]1OC(=O)[C@@H](OC)C[C@H]2C=CC3C4[C@H](O)[C@@H](C)[C@@H](OC(=O)c5ccc[nH]5)[C@@H]3O[C@]42/C(C)=C/[C@H]1C [Example 119] |  |  |  |  |  |  |  |  | 11 | 1.2 | 0.25 | 8 | ≤0.125 | >128* μg/mL
